Test results taken from patent US8481489B2, “GH secretagogues and uses thereof” (Theratechnologies Inc., priority 2003, dated 2013).

Assay: In vitro half-life
Type: in vitro ADME
From the text: The safety profile of TH9507 is generally good.

half-life: 33.6 min
Compound: CC[C@H](C)[C@H](NC(=O)[C@H](C)NC(=O)[C@H](CC(=O)O)NC(=O)[C@H](C)NC(=O)[C@@H](N)Cc1ccc(O)cc1)C(=O)N[C@@H](Cc1ccccc1)C(=O)N[C@H](C(=O)N[C@@H](CC(N)=O)C(=O)N[C@@H](CO)C(=O)N[C@@H](Cc1ccc(O)cc1)C(=O)N[C@@H](CCCNC(=N)N)C(=O)N[C@@H](CCCCN)C(=O)N[C@H](C(=O)N[C@@H](CC(C)C)C(=O)NCC(=O)N[C@@H](CCC(N)=O)C(=O)N[C@@H](CC(C)C)C(=O)N[C@@H](CO)C(=O)N[C@@H](C)C(=O)N[C@@H](CCCNC(=N)N)C(=O)N[C@@H](CCCCN)C(=O)N[C@@H](CC(C)C)C(=O)N[C@@H](CC(C)C)C(=O)N[C@@H](CCC(N)=O)C(=O)N[C@@H](CC(=O)O)C(=O)N[C@H](C(=O)N[C@@H](CCSC)C(=O)N[C@@H](CO)C(=O)N[C@@H](CCCNC(=N)N)C(=O)N[C@@H](CCC(N)=O)C(=O)N[C@@H](CCC(N)=O)C(=O)NCC(=O)N[C@@H](CCC(=O)O)C(=O)N[C@@H](CO)C(=O)N[C@@H](CC(N)=O)C(=O)N[C@@H](CCC(N)=O)C(=O)N[C@@H](CCC(=O)O)C(=O)N[C@@H](CCCNC(=N)N)C(=O)NCC(=O)N[C@@H](C)C(=O)N[C@@H](CCCNC(=N)N)C(=O)N[C@@H](C)C(=O)N[C@@H](CCCNC(=N)N)C(=O)N[C@@H](CC(C)C)C(N)=O)[C@@H](C)CC)C(C)C)[C@@H](C)O [hGRF, hGRF(1-44)NH2, reference compound]
